# Reference: patent US9360484B2, “Anti-FcRH5 antibodies and immunoconjugates and methods of use” (Genentech, Inc., priority 2009, dated 2016)
# B1: 7D11: murine monoclonal antibody binding human FcRH5 (antibody, V domains shown)
# VH: EVQLVESGGGLVQPGGSLKLSCAASGFTFSSYGMSWVRQTPDKRLELVATITRNGGTTYYLDSVKGRFTISRDNAKNTLYLQMSSLKSEDTAMYYCARGPIYYDYGYAMDYWGQGTTVTVSS
# VL: DILLTQSPAILSVSPGERVSFSCRSSQSIGTNIHWYQQRTNGSPRLLIKFASESLSGIPSRFSGSGSGTDFTLSINSVESEDFADYYCQQSNSWPLTFGAGTKVEIK
# What was measured:
# [1] = system: OPM2-FcRH5 tumors (OPM2 multiple myeloma cells stably transfected with human FcRH5); assay: OPM2-FcRH5 xenograft: Hu anti-FcRH5 10A8-MC-vc-PAB-MMAE in combination with Revlimid and Revlimid plus Dexamethasone; type: in vivo, CB17 ICR SCID mice; settings: for CR (mice with Complete Remission: tumor volume dropped to 0 mm^3) / PR (mice with Partial Regression: tumor volume dropped below 50% of day 0) / TI (number of observable tumors at end of study): 38 day time course, ADC 6 mg/kg single IV day 0, Revlimid 50 mg/kg IP daily, Dexamethasone 3 mg/kg PO; for percent body weight change (FIG. 44): first 17 days
# From the text: (§1) Specifically, the ability of the antibody in combination with Revlimid® and Revlimid® plus Dexamethasone to regress tumors in OPM2 cells (Multiple myeloma cell line) stably transfected with human FcRH5 was examined. After transfection of linearized pRK.CMV.PD.nbe.FcRH5 into OPM2 cells and puromycin (Calbiochem, San Diego, Calif.) selection, surviving cells were separated for FcRH5 expressing cells with biotin (Pierce Biotechnology, Rockford, Il) labeled anti-FcRH5.7D11 and MACS anti-Biotin microbeads on an MACS LS column (Miltenyi Biotec, Auburn, Calif.).
# For analysis of efficacy of Hu anti-FcRH5 10A8 conjugated to -MC-vc-PAB-MMAE in combination with Revlimid® and Revlimid® plus Dexamethasone, female CB17 ICR SCID mice (6-8 weeks of age from Charles Rivers Laboratories; Hollister, Calif.) were inoculated subcutaneously with 2×10^7 OPM2-FcRH5 cells via injection into the flanks of CB17 ICR SCID mice and the xenograft tumors were allowed to grow to an average of 446 mm^3. Day 0 refers to the day the tumors were 263-630 mm^3 and when the first/or only dose of treatment was administered, unless indicated specifically below. Tumor volume was calculated based on two dimensions, measured using calipers, and was expressed in mm3 according to the formula: V=0.5a×b^2, where a and b are the long and the short diameters of the tumor, respectively. Data collected from each experimental group were expressed as mean+SE. Mice were randomized into nine groups of 8 mice each and dosed. Group 1 received daily intraperitoneal (IP) injections of a mixture of DMSO and MCT buffer on Days 0-13 as a vehicle control. […] Group 4 received daily IP injections of 50 mg/kg Revlimid® on Days 0-13. Group 5 received daily oral (PO) dosing of 3 mg/kg Dexamethasone for four days followed by three days off for two cycles on Days 0-3 and 7-10. Group 6 received daily IP injections of 50 mg/kg Revlimid® on Days 0-13 plus daily PO dosing of 3 mg/kg Dexamethasone for four days followed by three days off for two cycles on Days 0-3 and 7-10. […] Tumors were measured twice a week throughout the experiment. Body weights of mice were measured twice a week throughout the experiment. If mice experienced a body weight loss of greater than 15% compared to their body weight on Day 0, mice were weighed daily until weight regained or until body weight loss reached greater than 20%. […] All animal protocols were approved by an Institutional Animal Care and Use Committee (IACUC).
# [2] = system: OPM2-FcRH5 tumors (OPM2 multiple myeloma cells stably transfected with human FcRH5); assay: OPM2-FcRH5 xenograft: Hu anti-FcRH5 10A8-SPDB-DM4 alone and in combination with Velcade; type: in vivo, CB17 ICR SCID mice
# From the text: Specifically, the ability of the antibody and Velcade® to regress tumors in OPM2 cells (Multiple myeloma cell line) stably transfected with human FcRH5 was examined. After transfection of linearized […]5 into OPM2 cells and puromycin (Calbiochem, San Diego, Calif.) selection, surviving cells were separated for FcRH5 expressing cells with biotin (Pierce Biotechnology, Rockford, Il) labeled anti-FcRH5.7D11 and MACS anti-Biotin microbeads on an MACS LS column (Miltenyi Biotec, Auburn, Calif.). […] Data collected from each experimental group were expressed as mean±SE. Mice were randomized into six groups of 9 mice each and dosed. […] Group 2 received a single IV injection of histidine buffer on Day 0 plus IV injections of 0.9% sodium chloride (saline) twice weekly for two weeks on Days 0, 3, 7, and 10 as a vehicle control. […] Tumors were measured twice a week throughout the experiment. Body weights of mice were measured twice a week for the first three weeks. […] All animal protocols were approved by an Institutional Animal Care and Use Committee (IACUC).
# OPM2-FcRH5 tumors = assay: Inhibition of in vivo tumor growth, OPM2-FcRH5 xenografts, hu10A8-MC-vc-PAB-MMAE alone and in combination with Velcade (Example 8, Table 14); parameters: species or system CB17 ICR SCID mice
# From the text: as §1, with “antibody” for “antibody in combination with Revlimid®”, “Velcade®” for “Revlimid® plus Dexamethasone”
# For analysis of efficacy of hu anti-FcRH5 10A8 conjugated with MC-vc-PAB-MMAE alone and in combination with Velcade®, female CB17 ICR SCID mice (6-8 weeks of age from Charles Rivers Laboratories; Hollister, Calif.) were inoculated subcutaneously with 2×10^7 OPM2-FcRH5 cells via injection into the flanks of CB17 ICR SCID mice and the xenograft tumors were allowed to grow to an average of 331 mm^3. Day 0 refers to the day the tumors were 172-511 mm^3 and when the first/or only dose of treatment was administered, unless indicated specifically below. Tumor volume was calculated based on two dimensions, measured using calipers, and was expressed in mm3 according to the formula: V=0.5a×b^2, where a and b are the long and the short diameters of the tumor, respectively. Data collected from each experimental group were expressed as mean±SE. Mice were randomized into nine groups of 9 mice each and dosed. Group 1 received a single intravenous (IV) injection of histidine buffer on Day 0 plus IV injections of 0.9% sodium chloride (saline) twice weekly for two weeks on Days 0, 3, 7, and 10 as a vehicle control. […] Group 3 received IV injections of 1 mg/kg Velcade® twice weekly for two weeks on Days 0, 3, 7, and 10. Group 4-5 received a single IV injection of 4 or 10 mg/kg thio hu anti-FcRH5(10A8)-HC-MC-vc-PAB-MMAE, CNJ 1465, respectively, on Day 0. […] Tumors were measured twice a week throughout the experiment. Body weights of mice were measured twice a week for the first three weeks. […] All animal protocols were approved by an Institutional Animal Care and Use Committee (IACUC).
# BJAB-FcRH5 tumors = assay: In vivo tumor cell killing assay, BJAB-FcRH5 xenografts (Example 4); parameters: species or system CB17 ICR SCID mice; settings: unconjugated antibody, 10.8 mg/kg i.v. day 0 and day 7, 8 mice
# Procedure: To test the efficacy of various anti-FcRH5 antibodies, murine anti-human antibodies were conjugated to DM1 and the effect of the conjugated variant on tumors in mice were analyzed.
# Specifically, the ability of the antibodies to regress tumors in BJAB-luciferase cells (Burkitt's lymphoma cell line stably transfected with human FcRH5.
# After transfection of pRK.CMV.PD.nbe.FcRH5 into BJAB-luciferase cells and puromycin (Calbiochem, San Diego, Calif.) selection, surviving cells were FACS autocloned for mid range expressers with anti-FcRH5 antibodies (7D11). Post autoclone, the BJAB-luciferase cell line expressing FcRH5 most closely resembling plasma cell expression, as determined by FACS, was chosen by FACS analysis using anti-FcRH5 antibodies (7D11). As a negative control, BJAB-luciferase transfected, in the same manner, with the empty vector pRK.CMV.PD.nbe were used.
# For analysis of efficacy mouse antibodies, female CB17 ICR SCID mice (6-8 weeks of age from Charles Rivers Laboratories; Hollister, Calif.) were inoculated subcutaneously with 2×10^7 BJAB-FcRH5 cells via injection into the flanks of CB17 ICR SCID mice and the xenograft tumors were allowed to grow to an average of 128 mm^3. Day 0 refers to the day the tumors were an average of 100-250 mm^3 and when the first/or only dose of treatment was administered, unless indicated specifically below. Tumor volume was calculated based on two dimensions, measured using calipers, and was expressed in mm^3 according to the formula: V=0.5a×b^2, where a and b are the long and the short diameters of the tumor, respectively. Data collected from each experimental group were expressed as mean±SE. Groups of 8 mice were treated with a weekly intravenous (i.v.) dose of 400 μg of antibody-linked drug/m^2 mouse (corresponding to ˜8-10 mg ADC/kg of mouse) with anti-FcRH5 ADC or control antibody-drug conjugates at day 0 and day 7. Tumors were measured twice a week throughout the experiment. Body weights of mice were measured either once a week throughout the experiment. […]
# cynomolgus FcRH5 = assay: Cyno cross-reactivity by FACS on stably transfected cells (SVT2 cells expressing cynoFcRH5); type: binding, cynomolgus monkey; parameters: key to Cyno X-reactivity (FACS) on stable transfected cells: X*: *Very slight at saturating concentration
# Procedure: For additional FACS analysis of FcRH5 antibodies, 1.0 μg, 0.1 μg or 0.01 μg of antibody was titrated per million cells of BJAB cells stably expressing huFcRH5 and SVT2 cells stably expressing cynoFcRH5. Briefly, approximately 10^6 cells in 100 μl were incubated with varying amounts (1.0 ug, 01. ug or 0.01 ug) of murine Ab mu1H4, mu6H1, mu7D11, mu9E2, mu10A8, mu10F5, or mu13G9 per million cells of BJAB cells stably expressing huFcRH5 and SVT2 cells stably expressing cynoFcRH5. Incubation with 1.0 ug/10^6 cells of the appropriate Mu IgG isotype control was used as a negative control. PE conjugated Rat anti-MuIgG1 or Rat anti-MuIgG2a+b was used as the secondary detection antibody.
# [3] = 37 day time course, ADC 4 mg/kg single IV day 0, Velcade 1 mg/kg IV days 0, 3, 7, 10
# [4] = Velcade 1 mg/kg twice weekly for two weeks (Days 0, 3, 7, 10), OPM2-FcRH5 xenograft, CB17 ICR SCID mice
# cynomolgus FcRH5, sequence (as listed by the source): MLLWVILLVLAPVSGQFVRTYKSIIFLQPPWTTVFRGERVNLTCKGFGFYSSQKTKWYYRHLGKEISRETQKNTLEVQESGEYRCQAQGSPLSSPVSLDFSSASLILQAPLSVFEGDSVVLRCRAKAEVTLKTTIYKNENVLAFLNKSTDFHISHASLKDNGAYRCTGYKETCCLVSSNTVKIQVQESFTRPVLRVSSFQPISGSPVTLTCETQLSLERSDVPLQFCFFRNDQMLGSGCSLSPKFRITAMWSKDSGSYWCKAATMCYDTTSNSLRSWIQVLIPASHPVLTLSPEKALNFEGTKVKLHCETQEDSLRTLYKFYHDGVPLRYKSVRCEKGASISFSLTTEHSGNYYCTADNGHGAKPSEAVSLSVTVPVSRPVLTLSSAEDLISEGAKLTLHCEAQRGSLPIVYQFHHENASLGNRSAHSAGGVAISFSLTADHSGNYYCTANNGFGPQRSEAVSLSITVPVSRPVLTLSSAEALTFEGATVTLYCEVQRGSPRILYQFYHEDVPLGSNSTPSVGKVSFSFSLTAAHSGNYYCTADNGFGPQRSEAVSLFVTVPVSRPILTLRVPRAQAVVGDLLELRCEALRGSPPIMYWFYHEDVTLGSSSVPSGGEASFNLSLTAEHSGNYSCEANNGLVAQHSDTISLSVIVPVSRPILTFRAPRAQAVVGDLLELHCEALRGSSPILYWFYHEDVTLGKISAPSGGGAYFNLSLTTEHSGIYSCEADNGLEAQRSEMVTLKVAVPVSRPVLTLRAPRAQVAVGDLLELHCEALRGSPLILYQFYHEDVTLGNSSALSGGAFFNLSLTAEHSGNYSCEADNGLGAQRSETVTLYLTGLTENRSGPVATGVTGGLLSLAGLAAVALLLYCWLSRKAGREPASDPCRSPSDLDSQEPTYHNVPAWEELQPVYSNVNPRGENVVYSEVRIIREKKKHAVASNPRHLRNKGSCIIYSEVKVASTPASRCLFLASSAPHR
molecule,measurement,setting,value
C[C@@H]1C[C@H]2[C@@H]3CCC4=CC(=O)C=C[C@]4(C)[C@@]3(F)[C@@H](O)C[C@]2(C)[C@@]1(O)C(=O)CO [Dexamethasone],CR (mice with Complete Remission: tumor volume dropped to 0 mm^3),[1],0
same,PR (mice with Partial Regression: tumor volume dropped below 50% of day 0),[1],0
same,TI (number of observable tumors at end of study),[1],5/5
same,percent body weight change (FIG. 44),[1],caused a significant decrease in body weight or weight loss
"Nc1cccc2c1CN(C1CCC(=O)NC1=O)C2=O (stereo not drawn) [Revlimid, lenalidomide]",CR (mice with Complete Remission: tumor volume dropped to 0 mm^3),[1],0
same,PR (mice with Partial Regression: tumor volume dropped below 50% of day 0),[1],0
same,TI (number of observable tumors at end of study),[1],4/4
same,percent body weight change (FIG. 44),[1],caused a significant decrease in body weight or weight loss
CC(C)C[C@H](NC(=O)[C@H](Cc1ccccc1)NC(=O)c1cnccn1)B(O)O [Velcade ®],CR (mice with Complete Remission: tumor volume dropped to 0 mm^3),[2]; [3],0
same,PR (mice with Partial Regression: tumor volume dropped below 50% of day 0),[2]; [3],0
same,TI (number of observable tumors at end of study),[2]; [3],8/8
same,CR (Complete Remission; number of mice with tumor volume dropped to 0 mm^3),OPM2-FcRH5 tumors; [4],0
same,PR (Partial Regression; number of mice with tumor volume below 50% of day 0 volume),OPM2-FcRH5 tumors; [4],0
same,TI (number of observable tumors at end of study),OPM2-FcRH5 tumors; [4],9/9
"CC(C)C[C@H](NC(=O)[C@H](Cc1ccccc1)NC(=O)c1cnccn1)B(O)O [Velcade®, bortezomib]",percent body weight change (FIG. 42),[2]; first 21 days,did not cause a significant decrease in body weight or weight loss
same,percent body weight change,"OPM2-FcRH5 tumors; first 24 days, 1 mg/kg IV twice weekly for two weeks","caused a decrease in body weight or weight loss through the duration of treatment, but weight rebounded after dosing was complete"
B1,"CR (Complete Remission, number of mice)",BJAB-FcRH5 tumors,0
same,"PR (Partial Regression, number of mice)",BJAB-FcRH5 tumors,0
same,TI (number of observable tumors at end of study),BJAB-FcRH5 tumors,8/8
same,Cyno X-reactivity (FACS) on stable transfected cells,cynomolgus FcRH5,X*
same,cross reaction with cynomolgus FcRH5 by FACS analysis,"cynomolgus FcRH5; 1.0, 0.1 or 0.01 μg antibody per million SVT2 cells stably expressing cynoFcRH5",cross react with cynomolgus FcRH5
